# According to US20260176267A1, “PREPARATION OF IMIDAZOPYRIDINE AND IMIDAZOPYRIDAZINE DERIVATIVES AS NOVEL DIACYLGLYCERIDE O-ACYLTRANSFERASE 2 INHIBITORS” (Merck Sharp & Dohme LLC, priority 2022, published 2026):
# Biological target: T1, human DGAT2 (hDGAT2) (Homo sapiens, UniProt Q96PD7)
# T1 construct: made in house; host or cells: Sf-9 insect cells (baculovirus), membrane fraction
# T1 sequence (Q96PD7 1-388): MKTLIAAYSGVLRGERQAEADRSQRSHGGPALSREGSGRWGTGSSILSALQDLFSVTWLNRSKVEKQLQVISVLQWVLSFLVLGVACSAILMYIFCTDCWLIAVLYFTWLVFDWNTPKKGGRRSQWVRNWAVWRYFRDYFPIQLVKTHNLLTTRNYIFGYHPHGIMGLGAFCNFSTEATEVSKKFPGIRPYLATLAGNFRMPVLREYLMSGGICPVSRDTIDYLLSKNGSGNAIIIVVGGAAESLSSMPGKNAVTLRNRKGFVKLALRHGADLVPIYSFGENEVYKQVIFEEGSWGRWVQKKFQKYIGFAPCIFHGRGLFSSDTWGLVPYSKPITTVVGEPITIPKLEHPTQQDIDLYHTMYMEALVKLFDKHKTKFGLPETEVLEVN
# Test: DGAT2 Enzymatic Activity Assay
# Format: biochemical
# Conditions: membrane prep of Sf-9 cells expressing hDGAT2; 13C18-triolein product by LC/MS/MS; 25 μM diolein, 5 μM 13C oleoyl-CoA, rt
# How it was run: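 Membranes from Sf-9 cells expressing untagged human DGAT2 (baculovirus, 48 h) used as enzyme at rt. The product ^13C18-triolein is quantified by LC/MS/MS against a ^13C21-triolein internal standard. Percent inhibition is taken from high and low controls, and IC50 is derived.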
row,IC50 [nM],SMILES
1,391,"CC1(NC(=O)c2nc3cc(Cl)c(Oc4nccnc4OCC(F)(F)F)nn3c2Cl)CCS(=O)(=O)CC1 [Example 177, 3,7-dichloro-N-(4-methyl-1,1-dioxo-thian-4-yl)-6-[3-(2,2,2-trifluoroethoxy)pyrazin-2-yl]oxy-imidazo[1,2-b]pyridazine-2-carboxamide]"
2,4000,"CC1(NC(=O)c2nc3ccc(Oc4nccnc4OCC(F)(F)F)nn3c2Cl)CCS(=O)(=O)CC1 [Example 178, 3-chloro-N-(4-methyl-1,1-dioxo-thian-4-yl)-6-[3-(2,2,2-trifluoroethoxy)pyrazin-2-yl]oxy-imidazo[1,2-b]pyridazine-2-carboxamide]"
3,101,"CC1(NC(=O)c2nc3cc(Cl)c(Oc4ncc(Cl)cc4OCC(F)(F)F)nn3c2Cl)CS(=O)(=O)C1 [Example 179, 3,7-dichloro-6-[[5-chloro-3-(2,2,2-trifluoroethoxy)-2-pyridyl]oxy]-N-(3-methyl-1,1-dioxo-thietan-3-yl)imidazo[1,2-b]pyridazine-2-carboxamide]"
4,53,"CC1(NC(=O)c2cn3nc(OCc4ncc(Cl)cc4OCC(F)F)ccc3n2)CCS(=O)(=O)CC1 [Example 180, 6-((5-Chloro-3-(2,2-difluoroethoxy)pyridin-2-yl)methoxy)-N-(4-methyl-1,1-dioxidotetrahydro-2H-thiopyran-4-yl)imidazo[1,2-b]pyridazine-2-carboxamide]"
5,25,"CC1(NC(=O)c2cn3nc(OCc4c(F)cccc4OC(F)F)ccc3n2)CCS(=O)(=O)CC1 [Example 181, 6-[[2-(Difluoromethoxy)-6-fluoro-phenyl]methoxy]-N-(4-methyl-1,1-dioxo-thian-4-yl)imidazo[1,2-b]pyridazine-2-carboxamide]"
6,11,"CC1(NC(=O)c2cn3nc(OCc4ncc(F)cc4OCC(F)(F)F)ccc3n2)CCS(=O)(=O)CC1 [Example 182, 6-[[5-Fluoro-3-(2,2,2-trifluoroethoxy)-2-pyridyl]methoxy]-N-(4-methyl-1,1-dioxo-thian-4-yl)imidazo[1,2-b]pyridazine-2-carboxamide]"
7,808,"Cc1cn(C)nc1COc1ccc2nc(C(=O)NC3(C)CCS(=O)(=O)CC3)cn2n1 [Example 183, 6-((1,4-dimethyl-1H-pyrazol-3-yl)methoxy)-N-(4-methyl-1,1-dioxidotetrahydro-2H-thiopyran-4-yl)imidazo[1,2-b]pyridazine-2-carboxamide]"
8,6340,"CCOc1ccccc1Oc1ccc2nc(C(=O)N[C@H]3CCOC3)cn2c1 [Example 184, (S)-6-(2-ethoxyphenoxy)-N-(tetrahydrofuran-3-yl)imidazo[1,2-a]pyridine-2-carboxamide]"
9,33,"CC1(NC(=O)c2cn3cc(Oc4ncc(Cl)cc4OCC(F)(F)F)cnc3n2)CCS(=O)(=O)CC1 [Example 186, 6-((5-Chloro-3-(2,2,2-trifluoroethoxy)pyridin-2-yl)oxy)-N-(4-methyl-1,1-dioxidotetrahydro-2H-thiopyran-4-yl)imidazo[1,2-a]pyrimidine-2-carboxamide]"
